We go through 1 molecule from BindingDB's records for PubMed 15050915 (Novartis Institutes for BioMedical Research).

The nature of the assay: Inhibition of PDK1 (unknown origin).

Usually IC50 stands for the point on the concentration scale where inhibition reaches its midpoint. With `Nc1ncnc2c1c(-c1cccc(OCc3ccccc3)c1)cn2[C@H]1C[C@@H](CN2CCC2)C1`, half-maximal inhibition (IC50) was put at 4.8 µM.
